In PubChem BioAssay (NCI):
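Grown in 96-well plates, cells were treated for 48 hours with each compound at five concentrations. Insufficient inhibition: endpoint recorded as highest concentration tested. TGI denotes the concentration required for complete inhibition of growth.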

Legend:
Assay in all cases: NCI tumour cell line growth inhibition, 48 h
[1] = tested on: OVCAR-3 ovarian
[2] = tested on: HOP-92 NSCLC
[3] = tested on: SN12C renal
[4] = tested on: TK-10 renal
[5] = tested on: M19-MEL melanoma
[6] = tested on: A549 NSCLC
[7] = tested on: XF 498 CNS
[8] = tested on: LOX IMVI melanoma
[9] = tested on: DMS 114 small cell lung
[10] = tested on: CAKI-1 renal
[11] = tested on: OVCAR-5 ovarian
[12] = tested on: CCRF-CEM leukemia
[13] = tested on: COLO 205 colon
[14] = tested on: UO-31 renal
[15] = tested on: NCI-H23 lung
[16] = tested on: NCI-H522 lung
[17] = tested on: DLD-1 colon
[18] = tested on: HOP-62 NSCLC
[19] = tested on: EKVX NSCLC
[20] = tested on: OVCAR-4 ovarian
[21] = tested on: HCT-116 colon
[22] = tested on: RXF 393 renal
[23] = tested on: SF-539 CNS
[24] = tested on: HCC-2998 colon
[25] = tested on: SNB-19 CNS
[26] = tested on: SNB-78 CNS
[27] = tested on: KM20L2 colon
[28] = tested on: ACHN renal
[29] = tested on: NCI-H226 lung
[30] = tested on: SK-MEL-2 melanoma
[31] = tested on: SW-620 colon
[32] = tested on: U251 CNS
[33] = tested on: MALME-3M melanoma
[34] = tested on: DMS 273 small cell lung
[35] = tested on: K-562 leukemia
[36] = tested on: SR leukemia
[37] = tested on: SK-MEL-5 melanoma
[38] = tested on: 786-0 renal
[39] = tested on: LXFL 529 NSCLC
[40] = tested on: MOLT-4 leukemia
[41] = tested on: SK-MEL-28 melanoma
[42] = tested on: HOP-18 NSCLC
[43] = tested on: RPMI-8226 leukemia
[44] = tested on: KM12 colon
[45] = tested on: SF-268 CNS
[46] = tested on: HCT-15 colon
[47] = tested on: SF-295 CNS
[48] = tested on: M14 melanoma
[49] = tested on: SNB-75 CNS
[50] = tested on: OVCAR-8 ovarian
[51] = tested on: IGROV1 ovarian
[52] = tested on: A498 renal
[53] = tested on: UACC-257 melanoma
[54] = tested on: HT29 colon
[55] = tested on: UACC-62 melanoma
[56] = tested on: HL-60(TB) leukemia
[57] = tested on: NCI-H460 lung
[58] = tested on: SK-OV-3 ovarian
[59] = tested on: RXF-631 renal

`Cc1ccc(C(c2c(O)c3ccccc3n(-c3ccccc3)c2=O)c2c(O)c3ccccc3n(-c3ccccc3)c2=O)cc1` was tested, and the TGI [1] was over 100 µM, the TGI [2] was over 100 µM and the TGI [3] was over 100 µM. The TGI [4] was over 100 µM, the TGI [5] was over 100 µM and the TGI [6] was over 100 µM. The TGI [7] was over 100 µM, the TGI [8] was over 100 µM and the TGI [9] was over 100 µM. It also gave a TGI [10] of over 100 µM, a TGI [11] of over 100 µM and a TGI [12] of over 100 µM. It also gave a TGI [13] of over 100 µM, a TGI [14] of over 100 µM and a TGI [15] of over 100 µM. For the same molecule, the TGI [16] was over 100000 nM, the TGI [17] was over 100 µM and the TGI [18] was over 100 µM. The TGI [19] was over 100 µM, the TGI [20] was over 100 µM and the TGI [21] was over 100 µM. It also gave a TGI [22] of over 100 µM, a TGI [23] of over 100 µM and a TGI [24] of over 100 µM. It also gave a TGI [25] of over 100 µM, a TGI [26] of over 100 µM and a TGI [27] of over 100 µM. The TGI [28] was over 100 µM, the TGI [29] was over 100 µM and the TGI [30] was over 100 µM. For the same molecule, the TGI [31] was over 100 µM, the TGI [32] was over 100 µM and the TGI [33] was over 100 µM. It also gave a TGI [34] of over 100 µM, a TGI [35] of over 100 µM and a TGI [36] of over 100 µM. The TGI [37] was over 100 µM, the TGI [38] was over 100 µM and the TGI [39] was over 100 µM. It also gave a TGI [40] of over 100 µM, a TGI [41] of over 100 µM and a TGI [42] of over 100 µM. For the same molecule, the TGI [43] was over 100 µM, the TGI [44] was over 100 µM and the TGI [45] was over 100 µM. The TGI [46] was over 100 µM.
For `CCCNCC(=O)O[C@]1(CC)C(=O)OCc2c1cc1n(c2=O)Cc2cc3ccccc3nc2-1`, the TGI [47] was 2.1 µM, the TGI [1] was 2.63 µM and the TGI [2] was 3.6 µM. It also gave a TGI [48] of 1.82 µM, a TGI [3] of 0.215 µM and a TGI [4] of over 100 µM. The TGI [5] was 1.96 µM, the TGI [6] was 1.98 µM and the TGI [7] was 0.652 µM. It also gave a TGI [8] of 0.662 µM, a TGI [9] of 0.941 µM and a TGI [11] of 3.96 µM. The TGI [12] was 0.308 µM, the TGI [13] was 3.07 µM and the TGI [49] was 537 nM. The TGI [50] was 8.33 µM, the TGI [15] was 0.321 µM and the TGI [16] was 1630 nM. The TGI [17] was over 100 µM, the TGI [19] was over 100 µM and the TGI [20] was 3.99 µM. The TGI [22] was 0.39 µM, the TGI [51] was 4.68 µM and the TGI [23] was 0.136 µM. For the same molecule, the TGI [24] was 4.36 µM, the TGI [52] was 849 nM and the TGI [53] was 1.88 µM. The TGI [25] was over 100 µM, the TGI [54] was over 100 µM and the TGI [27] was 19.2 µM. It also gave a TGI [28] of 0.233 µM, a TGI [29] of 0.331 µM and a TGI [30] of 3.68 µM. The TGI [32] was 0.244 µM, the TGI [33] was 4.1 µM and the TGI [55] was 1.12 µM. It also gave a TGI [34] of 0.114 µM, a TGI [35] of over 100 µM and a TGI [56] of 0.553 µM. It also gave a TGI [37] of 0.304 µM, a TGI [38] of 0.117 µM and a TGI [39] of 67.6 µM. For the same molecule, the TGI [40] was 0.0699 µM, the TGI [41] was 32.8 µM and the TGI [57] was 0.154 µM. For the same molecule, the TGI [58] was over 100 µM, the TGI [42] was over 100 µM and the TGI [43] was 0.88 µM. It also gave a TGI [44] of 8.05 µM and a TGI [45] of 2.46 µM.
`O=C1NC(=O)C(C(=O)C(=O)Nc2ccc(Cl)cc2Cl)C(=O)N1` showed a TGI [47] of over 100 µM, a TGI [1] of over 100 µM and a TGI [2] of over 100 µM. For the same molecule, the TGI [48] was over 100 µM, the TGI [4] was over 100 µM and the TGI [5] was over 100 µM. The TGI [6] was over 100 µM, the TGI [9] was over 100 µM and the TGI [10] was over 100 µM. For the same molecule, the TGI [11] was over 100 µM, the TGI [12] was over 100 µM and the TGI [13] was over 100 µM. For the same molecule, the TGI [14] was over 100 µM, the TGI [50] was over 100 µM and the TGI [17] was over 100 µM. For the same molecule, the TGI [18] was over 100 µM, the TGI [19] was over 100 µM and the TGI [20] was over 100 µM. It also gave a TGI [21] of over 100 µM, a TGI [51] of over 100 µM and a TGI [24] of over 100 µM. The TGI [52] was over 100000 nM, the TGI [53] was over 100 µM and the TGI [25] was over 100 µM. The TGI [26] was over 100 µM, the TGI [27] was over 100 µM and the TGI [28] was over 100 µM. The TGI [30] was over 100 µM, the TGI [31] was over 100 µM and the TGI [32] was over 100 µM. For the same molecule, the TGI [33] was over 100 µM, the TGI [55] was over 100 µM and the TGI [35] was over 100 µM. It also gave a TGI [56] of over 100 µM, a TGI [37] of over 100 µM and a TGI [38] of over 100 µM. For the same molecule, the TGI [39] was over 100 µM, the TGI [40] was over 100 µM and the TGI [57] was over 100 µM. For the same molecule, the TGI [58] was over 100 µM, the TGI [59] was over 100 µM and the TGI [43] was over 100 µM. It also gave a TGI [44] of over 100 µM and a TGI [46] of over 100 µM.
For `Cc1nn2c(nc1=O)sc1ccc3ccccc3c12`, the TGI [47] was over 100 µM, the TGI [1] was over 100 µM and the TGI [2] was over 100 µM. For the same molecule, the TGI [48] was over 100 µM, the TGI [3] was over 100 µM and the TGI [4] was over 100 µM. For the same molecule, the TGI [5] was over 100 µM, the TGI [6] was over 100 µM and the TGI [7] was over 100 µM. For the same molecule, the TGI [8] was over 100 µM, the TGI [9] was over 100 µM and the TGI [10] was over 100 µM. For the same molecule, the TGI [11] was over 100 µM, the TGI [12] was over 100 µM and the TGI [13] was over 100 µM. The TGI [49] was over 100000 nM, the TGI [14] was over 100 µM and the TGI [50] was over 100 µM. The TGI [15] was over 100 µM, the TGI [17] was over 100 µM and the TGI [18] was over 100 µM. It also gave a TGI [19] of over 100 µM, a TGI [20] of over 100 µM and a TGI [21] of over 100 µM. It also gave a TGI [22] of over 100 µM, a TGI [51] of over 100 µM and a TGI [23] of over 100 µM. The TGI [24] was over 100 µM, the TGI [53] was over 100 µM and the TGI [25] was over 100 µM. It also gave a TGI [26] of over 100 µM, a TGI [54] of over 100 µM and a TGI [27] of over 100 µM. The TGI [28] was over 100 µM, the TGI [29] was over 100 µM and the TGI [30] was over 100 µM. It also gave a TGI [31] of over 100 µM, a TGI [32] of over 100 µM and a TGI [33] of over 100 µM. For the same molecule, the TGI [55] was over 100 µM, the TGI [34] was over 100 µM and the TGI [35] was over 100 µM. For the same molecule, the TGI [56] was over 100 µM, the TGI [36] was over 100 µM and the TGI [37] was over 100 µM. For the same molecule, the TGI [38] was over 100 µM, the TGI [39] was over 100 µM and the TGI [40] was over 100 µM. The TGI [41] was over 100 µM, the TGI [57] was over 100 µM and the TGI [58] was over 100 µM. The TGI [42] was over 100 µM, the TGI [44] was over 100 µM and the TGI [45] was over 100 µM. The TGI [46] was over 100 µM.
